“And” between values parts separate entries of the source, which are not always exact repeats. Equal entries are not always repeated. Where two headings read alike, the source gives them in different places.

In one data set the test system is P-388 leukemia. Description: antitumor activity, intravenously implanted P-388 leukemia. The data set is classed as in vivo, mice.
The next data set can be described thus: toxicity in mice. The following applies: mouse, in vivo.
Where [1] appears, read: iv days 1,4,7, doses as MST lines, same order.
[2] abbreviates: ip qd 1→11, doses as T/C lines, same order.
Setting [3] is: ip qd 1→9, doses as T/C lines, same order.

Procedure for B16 melanoma: (§1) Lymphocytic leukemia P-388, lymphoid leukemia L-1210, melanotic melanoma B16 and Lewis lung carcinoma were implanted intraperitoneally into male BDF1 mice at an inoculum size of 10^6, 10^5, 5×10^5 and 10^6 cells per mouse, respectively. Graded doses of test compounds were administered to the mice intraperitoneally 24 hours after the tumor inoculation.
(§2) Death or survival of the treated and non-treated mice was recorded daily, and the median survival time (MST) was calculated for each of the test (T) and control (C) groups.
Procedure for Lewis lung carcinoma: as §1, §2

Regarding `COc1cccc2c1C(=O)c1c(O)c3c(c(O)c1C2=O)C[C@@](O)(C(=O)CO)C[C@@H]3O[C@H]1C[C@H](N)[C@H](O)[C@H](C)O1` [Adriamycin, adriamycin], the T/C (commonly the result in the treated group divided by that in the control group, in per cent) in the data set with P-388 leukemia (iv days 1,4,7, 1 mg/kg/day) was found to be 100%; with P-388 leukemia (iv days 1,4,7, 10 mg/kg/day) it was 100%. Further, the “Survivors on day 5” value with P-388 leukemia (setting [1]) was 0/6 and 6/6. Besides, in the data set on P-388 leukemia (setting [1]), the “Survivors on day 45” value is recorded as 0/6.
As to `CO[C@@H]1[C@H](O)C[C@@H](O[C@@H]2C[C@H](Oc3cc4cc5c(c(O)c4c(O)c3C)C(=O)[C@@H](O[C@H]3C[C@@H](O[C@H]4C[C@@H](O[C@H]6C[C@](C)(O)[C@@H](OC(C)=O)[C@H](C)O6)[C@H](O)[C@@H](C)O4)[C@H](O)[C@@H](C)O3)[C@H]([C@H](OC)C(=O)[C@@H](O)[C@@H](C)O)C5)O[C@H](C)[C@@H]2OC(C)=O)O[C@@H]1C` [Chromomycin A3, chromomycin A3], the T/C in the data set with Lewis lung carcinoma (ip qd 1→11, 0.003 mg/kg/day) is 105%; in the data set with B16 melanoma (ip qd 1→9, 0.003 mg/kg/day), 109%. The MST is 21.5 days and 17.0 days and 11.5 days with Lewis lung carcinoma (setting [2]); 25.5 days and 23.0 days and 21.0 days and 18.0 days in the data set with B16 melanoma (setting [3]). For the same molecule, the “Survivors on day 5” value with Lewis lung carcinoma (setting [2]) is listed as 6/6; in the data set with Lewis lung carcinoma (mouse, in vivo, ip), 5/5; in the data set on B16 melanoma (setting [3]), 6/6. Moreover, the “Survivors on day 45” value in the data set on Lewis lung carcinoma (setting [2]) is 1/6 and 0/5 and 0/6; with B16 melanoma (setting [3]), 0/6. Besides, the “Average wt. change on day 5” value with Lewis lung carcinoma (mouse, in vivo, ip) is “+1.7 g”; with B16 melanoma (setting [3]) it was “+2.2 g”. The LD50 – broadly, the dose at which mortality reaches 50% – is 0.23 mg/kg in the data set “toxicity in mice” (ip, LD50, multiple dose (qd 1→9) i.p.); 0.81 mg/kg in “toxicity in mice” (ip, LD50, single dose i.p.); 0.41 mg/kg in “toxicity in mice” (iv, LD50, single dose i.v.).

The record behind these values is patent US4675187A, “BBM-1675, a new antibiotic complex” (priority 1985, dated 1987).
